Measurements taken from the Deep4Chem optical property database.

Assay: solvent given as SMILES

For `Oc1cccc(O)c1-c1c2ccc(=[N+]3CCCCC3)cc-2oc2cc(N3CCCCC3)ccc12`, which absorption maximum (in CCO) is on record?
Its absorption maximum is 557 nm.

Which absorption maximum (in C1CCOC1) does the source give for `CN(C)c1ccc(C2=C(c3ccccc3)c3sc4ccccc4[n+]3[B-](F)(F)O2)cc1` here?
Its absorption maximum is 446 nm.

What does the source list for `Cc1ccc(/C=C/c2ccccc2-[n+]2noc([O-])c2-c2ccccc2)cc1`?
absorption maximum (in C1CCCCC1): 316 nm; absorption maximum (in CC#N): 313 nm; absorption maximum (in CCO): 315 nm

Which absorption maximum (in ClC(Cl)Cl) does the source give for `CCOC(CN1C(=O)C2=C(c3ccsc3)N(CC(OCC)OCC)C(=O)C2=C1c1ccsc1)OCC` here?
The absorption maximum was 493 nm.

For `c1ccc(C(=C(c2ccccc2)c2ccc(-c3ccc(-c4nc5c(-c6ccc(-c7ccc(C(=C(c8ccccc8)c8ccccc8)c8ccccc8)cc7)cc6)sc(-c6ccc(-c7ccc(C(=C(c8ccccc8)c8ccccc8)c8ccccc8)cc7)cc6)c5nc4-c4ccc(-c5ccc(C(=C(c6ccccc6)c6ccccc6)c6ccccc6)cc5)cc4)cc3)cc2)c2ccccc2)cc1`, which absorption maximum (in Cc1ccccc1) is on record?
Its absorption maximum is 530 nm.

What about the absorption maximum (in ClCCl) of the same compound?
Its absorption maximum is 520 nm.

For `CCN(CC)c1cccc(C=O)c1`, which absorption maximum (in CC#N) is on record?
Its absorption maximum is 380 nm.

What about the absorption maximum (in CC(C)O) of the same compound?
Its absorption maximum is 382 nm.

What about the absorption maximum (in CCCCCC) of the same compound?
Its absorption maximum is 367 nm.

What about the absorption maximum (in CCOC(C)=O) of the same compound?
Its absorption maximum is 376 nm.

What about the absorption maximum (in CO) of the same compound?
The absorption maximum was 382 nm.

And the absorption maximum (in CS(C)=O)?
The absorption maximum was 384 nm.

And the absorption maximum (in Cc1ccccc1)?
Its absorption maximum is 380 nm.

What about the absorption maximum (in ClCCl) of the same compound?
The absorption maximum was 382 nm.

With `O=C(O)c1ccc2cc3cc(C(=O)O)ccc3cc2c1` as the compound, how does the absorption maximum (in C1CCOC1) read?
Its absorption maximum is 409 nm.

And the absorption maximum (in CN(C)C=O)?
The absorption maximum was 409 nm.

With `Cc1cc2cc(N3c4ccccc4Oc4ccccc43)ccc2c(=O)o1` as the compound, how does the absorption maximum (in Cc1ccccc1) read?
Its absorption maximum is 395 nm.

With `CCCCCCn1c(=O)c2c3nc4ccccc4nc3c3c(=O)n(CCCCCC)c(=O)c3c2c1=O` as the compound, how does the absorption maximum (in ClCCl) read?
The absorption maximum was 404 nm.

Which absorption maximum (in ClCCl) does the source give for `CCCCN(CCCC)c1ccc2c(c1)C#CC#Cc1cc(C(F)(F)F)ccc1C#Cc1cc(c3cc1C#Cc1ccc(C(F)(F)F)cc1C#CC#Cc1cc(N(CCCC)CCCC)ccc1C#C3)C#C2` here?
The absorption maximum was 474 nm.

What does the source list for `O=c1c2ccccc2n2c3ccccc3c(=O)c3cc(-c4ccccc4)cc1c32`?
absorption maximum (in CC#N): 447 nm; absorption maximum (in CCCCCC): 437 nm; absorption maximum (in CCCCOCCCC): 440 nm; absorption maximum (in CCOC(C)=O): 443 nm; absorption maximum (in CN(C)C=O): 450 nm; absorption maximum (in Cc1ccccc1): 445.76 nm

With `Cc1nc2cccc(-c3nc4ccccc4[nH]3)c2c(=O)[nH]1` as the compound, how does the absorption maximum (in CN(C)C=O) read?
Its absorption maximum is 313 nm.

Which absorption maximum (in ClC(Cl)Cl) does the source give for `N#Cc1ccc(C#Cc2ccccc2C#N)cc1` here?
The absorption maximum was 297 nm.

For `N#Cc1c(N2CCCCC2)cc(-c2ccc3ccc4cccc5ccc2c3c45)c2c1-c1ccccc1C2=O`, which absorption maximum (in C1CCOC1) is on record?
The absorption maximum was 393 nm.

Which absorption maximum (in ClCCl) does the source give for `CCN(CC)c1ccc2c(c1)oc(=O)c1cnc3c(cnn3-c3ccccc3)c12` here?
The absorption maximum was 405 nm.

With `CCN(CC)c1ccc2c(c1)oc(=O)c1c(=O)oc3cc([N+](=O)[O-])ccc3c12` as the compound, how does the absorption maximum (in CS(C)=O) read?
The absorption maximum was 498 nm.

And the absorption maximum (in ClCCl)?
The absorption maximum was 494 nm.

For `CC1=[N+]2C(=C(c3ccc(Br)cc3)c3ccc(C)n3[B-]2(F)F)C=C1c1cc2n(c1)[B-](F)(F)[N+]1=CC=CC1=C2c1c(C)cc(C)cc1C`, which absorption maximum (in C1CCCCC1) is on record?
The absorption maximum was 598.5 nm.

And the absorption maximum (in CCOC(C)=O)?
Its absorption maximum is 601.5 nm.

For `O=P1(c2ccccc2)C(c2cccs2)=C(c2cccs2)c2ccccc21` (stereo not drawn), which absorption maximum (in C1CCOC1) is on record?
The absorption maximum was 368 nm.

With `CC1=CC(C)=[N+]2C1=C(c1ccc(I)cc1)c1c(C)cc(C)n1[B-]2(Oc1ccc([N+](=O)[O-])cc1)Oc1ccc([N+](=O)[O-])cc1` as the compound, how does the absorption maximum (in ClC(Cl)Cl) read?
The absorption maximum was 505 nm.

With `Cc1c(COC(=O)Cc2ccccc2)n2c(OCC(=O)Cc3ccccc3)c(C)c(=O)n2c1=O` as the compound, how does the absorption maximum (in CCO) read?
The absorption maximum was 379 nm.

For `N#Cc1ccc2[nH]ccc2c1`, which absorption maximum (in C1COCCO1) is on record?
The absorption maximum was 274.85 nm.

And the absorption maximum (in CC#N)?
Its absorption maximum is 275 nm.

And the absorption maximum (in O)?
The absorption maximum was 275 nm.

For `CCCCN1C(=O)C2=C(c3ccc(-c4ccc5c(c4)C(C)(C)c4ccccc4-5)cc3)[N-]C(=O)C2=C1c1ccc(-c2ccc3c(c2)C(C)(C)c2ccccc2-3)cc1`, which absorption maximum (in ClCCl) is on record?
Its absorption maximum is 594 nm.

With `COc1ccc(/C=C/c2cc(/C=C/c3ccc(N(c4ccccc4)c4ccccc4)cc3)nc(/C=C/c3ccc(N(C)C)cc3)n2)cc1` as the compound, how does the absorption maximum (in ClCCl) read?
The absorption maximum was 386 nm.

Which absorption maximum (in ClC(Cl)Cl) does the source give for `O=C1CC(c2ccc([N+](=O)[O-])cc2)c2c(c3ccccc3c3nc4ccccc4nc23)O1` (stereo not drawn) here?
The absorption maximum was 408 nm.

Which absorption maximum (in CC#N) does the source give for `N#Cc1ccc(-n2nc(C#N)c(N3CCCC3)n2)cc1` here?
Its absorption maximum is 362 nm.

For `CCCCN1C(=O)C(=CC=C2N(CCCC)c3ccccc3N2CCCC)C(=O)N(CCCC)C1=S`, which absorption maximum (in CCCCCC) is on record?
The absorption maximum was 470 nm.

What about the absorption maximum (in CCO) of the same compound?
Its absorption maximum is 424 nm.

And the absorption maximum (in CN(C)C=O)?
The absorption maximum was 431 nm.

And the absorption maximum (in Cc1ccccc1)?
Its absorption maximum is 468 nm.

What about the absorption maximum (in ClC(Cl)Cl) of the same compound?
Its absorption maximum is 461 nm.

And the absorption maximum (in ClCCl)?
The absorption maximum was 456 nm.

With `CC[n+]1c(-c2ccccc2)c2cc(NC(N)=O)ccc2c2ccc(N)cc21` as the compound, how does the absorption maximum (in O) read?
Its absorption maximum is 463 nm.

For `CC(C)(C)c1ccc2c(c1)c1cc(C(C)(C)C)ccc1n2-c1ccc(N(c2ccc(-c3ccc(-c4ccc(-c5ccc(N(c6ccc(-n7c8ccc(C(C)(C)C)cc8c8cc(C(C)(C)C)ccc87)cc6)c6ccc(-n7c8ccc(C(C)(C)C)cc8c8cc(C(C)(C)C)ccc87)cc6)cc5)s4)s3)cc2)c2ccc(-n3c4ccc(C(C)(C)C)cc4c4cc(C(C)(C)C)ccc43)cc2)cc1`, which absorption maximum (in ClCCl) is on record?
Its absorption maximum is 418 nm.
